From the NIST ThermoML archive (doi:10.1021/je300873x)

Experiment: mn = molality of the nth substance listed, in mol/kg
Details: for surface tension liquid-gas: Pendant drop shape; for electrical conductivity: Liquid, Digital conductivity meter

CCCCCCCCCCCC[N+](C)(CCO)CCO.[Br-] [N,N-bis(2-hydroxyethyl)-N-methyldodecan-1-aminium bromide] + O
Details | electrical conductivity [S/m] | surface tension liquid-gas [mN/m]
298.15 K, m1 = 0.00097 | – | 68.8
298.15 K, m1 = 0.00193 | – | 62.75
298.15 K, m1 = 0.00387 | – | 54.86
298.15 K, m1 = 0.0058 | – | 48.7
298.15 K, m1 = 0.00773 | – | 45.46
298.15 K, m1 = 0.0095 | 0.0822 | –
298.15 K, m1 = 0.00967 | – | 41.58
298.15 K, m1 = 0.00997 | 0.0859 | –
298.15 K, m1 = 0.0105 | 0.0903 | –
298.15 K, m1 = 0.01108 | 0.0948 | –
298.15 K, m1 = 0.0116 | – | 39.54
298.15 K, m1 = 0.01174 | 0.0998 | –
298.15 K, m1 = 0.01247 | 0.1051 | –
298.15 K, m1 = 0.01257 | – | 38.9
298.15 K, m1 = 0.01287 | 0.1075 | –
298.15 K, m1 = 0.0133 | 0.1097 | –
298.15 K, m1 = 0.01376 | 0.1114 | –
298.15 K, m1 = 0.01425 | 0.1126 | –
298.15 K, m1 = 0.0145 | – | 38.74
298.15 K, m1 = 0.01478 | 0.1144 | –
298.15 K, m1 = 0.01535 | 0.1155 | –
298.15 K, m1 = 0.01596 | 0.1171 | –
298.15 K, m1 = 0.01644 | – | 38.53
298.15 K, m1 = 0.01663 | 0.119 | –
298.15 K, m1 = 0.01735 | 0.1209 | –
298.15 K, m1 = 0.01814 | 0.1227 | –
298.15 K, m1 = 0.01901 | 0.1245 | –
298.15 K, m1 = 0.01956 | – | 38.53
298.15 K, m1 = 0.01996 | 0.1268 | –
298.15 K, m1 = 0.0291 | – | 38.45
298.15 K, m1 = 0.04849 | – | 38.36
303.15 K, m1 = 0.00949 | 0.091 | –
303.15 K, m1 = 0.00996 | 0.0952 | –
303.15 K, m1 = 0.01049 | 0.0996 | –
303.15 K, m1 = 0.01107 | 0.1049 | –
303.15 K, m1 = 0.01172 | 0.1117 | –
303.15 K, m1 = 0.01245 | 0.1161 | –
303.15 K, m1 = 0.01285 | 0.1192 | –
303.15 K, m1 = 0.01328 | 0.1216 | –
303.15 K, m1 = 0.01374 | 0.1236 | –
303.15 K, m1 = 0.01423 | 0.1258 | –
303.15 K, m1 = 0.01476 | 0.127 | –
303.15 K, m1 = 0.01533 | 0.1296 | –
303.15 K, m1 = 0.01594 | 0.1313 | –
303.15 K, m1 = 0.01661 | 0.1328 | –
303.15 K, m1 = 0.01733 | 0.1347 | –
303.15 K, m1 = 0.01812 | 0.1365 | –
303.15 K, m1 = 0.01898 | 0.1386 | –
303.15 K, m1 = 0.01993 | 0.141 | –
308.15 K, m1 = 0.00994 | 0.1048 | –
308.15 K, m1 = 0.01047 | 0.1099 | –
308.15 K, m1 = 0.01105 | 0.1157 | –
308.15 K, m1 = 0.0117 | 0.1216 | –
308.15 K, m1 = 0.01243 | 0.1282 | –
308.15 K, m1 = 0.01283 | 0.1315 | –
308.15 K, m1 = 0.01326 | 0.1349 | –
308.15 K, m1 = 0.01372 | 0.1375 | –
308.15 K, m1 = 0.01421 | 0.1402 | –
308.15 K, m1 = 0.01473 | 0.1421 | –
308.15 K, m1 = 0.0153 | 0.1447 | –
308.15 K, m1 = 0.01591 | 0.1463 | –
308.15 K, m1 = 0.01658 | 0.1485 | –
308.15 K, m1 = 0.0173 | 0.151 | –
308.15 K, m1 = 0.01809 | 0.153 | –
308.15 K, m1 = 0.01895 | 0.1563 | –
308.15 K, m1 = 0.0199 | 0.1591 | –
313.15 K, m1 = 0.01045 | 0.1198 | –
313.15 K, m1 = 0.01103 | 0.1258 | –
313.15 K, m1 = 0.01168 | 0.1323 | –
313.15 K, m1 = 0.01241 | 0.14 | –
313.15 K, m1 = 0.01281 | 0.1439 | –
313.15 K, m1 = 0.01324 | 0.1478 | –
313.15 K, m1 = 0.01369 | 0.1515 | –
313.15 K, m1 = 0.01418 | 0.155 | –
313.15 K, m1 = 0.01471 | 0.1577 | –
313.15 K, m1 = 0.01527 | 0.1602 | –
313.15 K, m1 = 0.01589 | 0.1631 | –
313.15 K, m1 = 0.01655 | 0.1654 | –
313.15 K, m1 = 0.01727 | 0.168 | –
313.15 K, m1 = 0.01805 | 0.1707 | –
313.15 K, m1 = 0.01891 | 0.1726 | –
318.15 K, m1 = 0.01043 | 0.1298 | –
318.15 K, m1 = 0.01101 | 0.1366 | –
318.15 K, m1 = 0.01165 | 0.1438 | –
318.15 K, m1 = 0.01238 | 0.1522 | –
318.15 K, m1 = 0.01278 | 0.1567 | –
318.15 K, m1 = 0.01321 | 0.1612 | –
318.15 K, m1 = 0.01367 | 0.166 | –
318.15 K, m1 = 0.01415 | 0.1704 | –
318.15 K, m1 = 0.01468 | 0.1739 | –
318.15 K, m1 = 0.01524 | 0.177 | –
318.15 K, m1 = 0.01585 | 0.1806 | –
318.15 K, m1 = 0.01651 | 0.1838 | –
318.15 K, m1 = 0.01723 | 0.1864 | –
318.15 K, m1 = 0.01802 | 0.1895 | –
318.15 K, m1 = 0.01887 | 0.1932 | –
318.15 K, m1 = 0.01983 | 0.1976 | –
323.15 K, m1 = 0.0104 | 0.1411 | –
323.15 K, m1 = 0.01098 | 0.1472 | –
323.15 K, m1 = 0.01163 | 0.1554 | –
323.15 K, m1 = 0.01236 | 0.1644 | –
323.15 K, m1 = 0.01275 | 0.169 | –
323.15 K, m1 = 0.01318 | 0.1743 | –
323.15 K, m1 = 0.01363 | 0.1794 | –
323.15 K, m1 = 0.01412 | 0.1851 | –
323.15 K, m1 = 0.01465 | 0.1902 | –
323.15 K, m1 = 0.01521 | 0.1949 | –
323.15 K, m1 = 0.01582 | 0.1998 | –
323.15 K, m1 = 0.01648 | 0.2018 | –
323.15 K, m1 = 0.01719 | 0.2068 | –
323.15 K, m1 = 0.01798 | 0.2118 | –
323.15 K, m1 = 0.01883 | 0.2128 | –
323.15 K, m1 = 0.01977 | 0.2199 | –
